Test [1] has as its target T1, PPARα LBD (Homo sapiens, UniProt Q07869).
T1 construct: purchased Sigma SRP2054
T1 sequence (Q07869 239-466 limits assumed): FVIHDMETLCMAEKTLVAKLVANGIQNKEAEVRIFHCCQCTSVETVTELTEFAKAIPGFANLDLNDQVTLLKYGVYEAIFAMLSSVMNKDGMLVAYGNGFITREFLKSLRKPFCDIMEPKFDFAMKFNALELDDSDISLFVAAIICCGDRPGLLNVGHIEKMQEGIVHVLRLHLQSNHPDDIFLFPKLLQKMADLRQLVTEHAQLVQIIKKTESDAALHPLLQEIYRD
The experiment in a line: Thermal shift assay, PPARα LBD. The test is classed as binding. Particulars: ligand 20 µM.

In test [2] the test system is TAA-induced liver fibrosis model. The experiment in a line: TAA-induced liver fibrosis mouse model (8 weeks). The class given is in vivo. How it is done:
To further explore the effects on fibrosis suppression, a thioacetamide (TAA)-induced liver fibrosis model was used. Liver fibrosis was induced by intraperitoneal injection of TAA at a dose of 150 mg/kg, administered three times a week for 8 weeks. […] After the treatment period, the mice were euthanized using CO2. Serum was collected for biochemical analysis, and liver tissues were immediately harvested and frozen in liquid nitrogen for subsequent quantitative reverse transcription polymerase chain reaction (qRT-PCR), western blotting, and biological analysis. Furthermore, some liver samples were fixed in 4% paraformaldehyde buffered to neutral pH for histochemical analysis. For long-term storage, remaining liver samples were stored at -80°C in a deep freezer. […] Liver fibrosis was induced by administering TAA intraperitoneally at a dose of 150 mg/kg three times a week for a duration of […]. […] Upon completion of the treatment period, mice were euthanized using CO2, and serum and liver tissue samples were harvested for subsequent evaluation. Serum samples collected from mice were incubated at room temperature for 20 min before being centrifuged at 3000 rpm for 20 min to separate blood cells and clotting factors. Serum alanine transaminase (ALT) and aspartate aminotransferase (AST) activities were measured using ALT and AST assay kits (Asan Pharm, Seoul, Republic of Korea) to assess liver injury. Blood urea nitrogen (BUN) levels in the serum were analyzed using a commercial assay kit ([…]-BUN, […] Diagnostics, Seoul, Republic of Korea; catalog number 1120171) following the manufacturer's guidelines. Creatinine levels in the serum were quantified using the […] assay kit ([…] Diagnostics; catalog number 1120051) in accordance with the manufacturer's instructions. Liver and kidney tissues were processed to detect histological changes through the following procedures. The tissues were fixed in 4% paraformaldehyde, and paraffin-embedded sections were prepared for H&E staining according to standard procedures. […]

For test [3], the target named is T2, FXR LBD (Homo sapiens, UniProt Q96RI1).
T2 construct: purchased Sigma SRP2137
T2 sequence (Q96RI1 262-486 limits assumed): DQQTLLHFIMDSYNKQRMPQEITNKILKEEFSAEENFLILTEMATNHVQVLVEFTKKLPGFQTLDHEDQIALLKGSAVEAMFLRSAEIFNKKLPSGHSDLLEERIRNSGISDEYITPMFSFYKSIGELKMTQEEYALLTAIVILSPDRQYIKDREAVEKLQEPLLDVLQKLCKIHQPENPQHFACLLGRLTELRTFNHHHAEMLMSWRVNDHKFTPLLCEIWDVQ
The experiment in a line: Thermal shift assay, FXR LBD. The test is classed as binding. Particulars: ligand 20 µM.

`CC(C)(Oc1ccc(C(=O)c2ccc(Cl)cc2)cc1)C(=O)O` [fenofibric acid]: the “Melting temperature of PPARα LBD” value in test [1] was “altered”.

For `CC[C@H]1[C@@H](O)[C@@H]2[C@H](CC[C@]3(C)[C@@H]([C@H](C)CCC(=O)O)CC[C@@H]23)[C@@]2(C)CC[C@@H](O)C[C@@H]12` [OCA, obeticholic acid], the “Damaged hepatocytes (H&E)” value in test [2] (TAA mice) was “fewer damaged hepatocytes”. In test [2] (TAA mice, oral 3 mg/kg daily, increase still higher than in MHY5396 group), the “Serum AST level” value was “smaller increase in AST levels than that in the TAA group”. The Protection against fibrosis result in test [2] (TAA model, MHY5396 versus OCA) was “protective effects against fibrosis”. Moreover, the “Melting temperature of FXR LBD” value in test [3] was “altered”.

For the origin of these results see article PMC12554789, “Benzoxazole Derivatives as Potent FXR and PPARα Dual Agonists With Anti‐Fibrotic and Metabolic Regulatory Effects” (MedComm, 2025).
